Experimental data from patent US8455497B2, “Inhibitors of aspartyl protease” (Vertex Pharmaceuticals Incorporated, priority 1999, dated 2013).
Like-named read-outs stand apart in the source and are kept apart here.

What was measured:
[1] = system: EP13 multi protease inhibitor resistant virus; experiment: Anti-viral activity against resistant virus EP13 in MT4 cells; format: cell-based, HIV-1
Protocol: (§1) Exponentially growing MT4 cells were harvested and centrifuged at 1000 rpm for 10 min in a Jouan centrifuge (model CR 4 12). […] Cell aliquots were infected by the addition of HIV-1 (strain IIIB) diluted to give a viral multiplicity of infection of 100×TCID50. […] Cell infection was allowed to proceed for 1 hr at 37° in a tissue culture incubator with humidified 5% CO2 atmosphere. After the 1 hr incubation the virus/cell suspensions were diluted 6-fold with fresh medium, and 125 μl of the cell suspension was added to each well of the plate containing pre-diluted compound. Plates were then placed in a tissue culture incubator with humidified 5% CO2 for 5 days. At the end of the incubation period, 27 μl of 5% Nonidet-40 was added to each well of the incubation plate. After thorough mixing with a Costar multitip pipetter, 60 μl of the mixture was transferred to filter-bottomed 96-well plates. The plates were analyzed in an automated assay instrument (Screen Machine, Idexx Laboratories). The assay makes use of a propidium iodide dye to estimate the DNA content of each well.
(§2) Anti-Viral Activity Against Resistant Viruses
EP13 and DS45701, two multi protease inhibitor resistant viruses were used to assess potency against mutant viruses. These viruses contain the following mutations relative to the consensus sequence of wild type virus:
EP13: Protease amino acid sequence: M46I, L63P, A71V, V82F/L, I84V; No reverse transcriptase mutations.

[2] = system: D545701-14 multi protease inhibitor resistant virus; experiment: Anti-viral activity against resistant virus D545701-14 in MT4 cells; format: cell-based, HIV-1
Protocol: as §1, §2
EP13 and DS45701, two multi protease inhibitor resistant viruses were used to assess potency against mutant viruses. These viruses contain the following mutations relative to the consensus sequence of wild type virus: […]

HIV-1 (strain IIIB) = experiment: Antiviral activity assay in MT4 cells (propidium iodide based); format: cell-based; conditions: wild type HIV-1 virus, MT4 cells, read-out: Wildtype virus - IC50
How it was run: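 MT4 cells infected with HIV-1 IIIB (MOI 100×TCID50, 1 hr, 37°C), diluted 6-fold into wells with serially diluted compound, incubated 5 days. Cells lysed with Nonidet-40; DNA content per well estimated by propidium iodide staining as the viability read-out, with mock-infected controls.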

[3] = EP13 multi protease inhibitor resistant virus, MT4 cells, read-out: EP13 mutant IC50
[4] = D545701-14 multi protease inhibitor resistant virus, MT4 cells, read-out: D545701-14 mutant - IC50
[5] = Human immunodeficiency virus 1, MT4, read-out: EP13 mutant IC50, EP13 multi protease inhibitor resistant virus, MT4 cells
[6] = Human immunodeficiency virus 1, MT4, read-out: D545701-14 mutant - IC50, D545701-14 multi protease inhibitor resistant virus, MT4 cells
[7] = Human immunodeficiency virus 1, IIIB

| SMILES | IC50 [1, 3] | IC50 [2, 4] | IC50 (HIV-1 (strain IIIB)) | IC50 [1, 5] | IC50 [2, 6] | IC50 (HIV-1 (strain IIIB); [7]) | IC50 ([1]; Human immunodeficiency virus 1, MT4, read-out: EP13 mutant IC50) | IC50 ([2]; Human immunodeficiency virus 1, MT4, read-out: D545701-14 mutant - IC50) |
| --- | --- | --- | --- | --- | --- | --- | --- | --- |
| CC(=O)NCCCCOc1ccc(C[C@H](NC(=O)O[C@H]2CO[C@H]3OCC[C@H]32)[C@H](O)CN(CC(C)C)S(=O)(=O)c2ccc3c(c2)OCO3)cc1 [Compound 230] | 1 to 10 nM | 1 to 10 nM | 10 to 100 nM |  |  |  |  |  |
| CC(C)CN(C[C@@H](O)[C@H](Cc1ccc(OCCCNS(C)(=O)=O)cc1)NC(=O)O[C@H]1CO[C@H]2OCC[C@H]21)S(=O)(=O)c1ccc2c(c1)OCO2 [Compound 251] | 1 to 10 nM | 1 to 10 nM | 10 to 100 nM |  |  |  |  |  |
| CC(C)CN(C[C@@H](O)[C@H](Cc1ccc(OCCNC(=O)N(C)C)cc1)NC(=O)O[C@H]1CO[C@H]2OCC[C@H]21)S(=O)(=O)c1ccc2c(c1)OCO2 [Compound 253] | 1 to 10 nM | 1 to 10 nM | 10 to 100 nM |  |  |  |  |  |
| CC(C)CN(C[C@@H](O)[C@H](Cc1ccc(OCCCNC(=O)c2ccoc2)cc1)NC(=O)O[C@H]1CO[C@H]2OCC[C@H]21)S(=O)(=O)c1ccc2c(c1)OCO2 [Compound 261, (3R,3aS,6aR)-hexahydrofuro[2,3-b]furan-3-yl (1S,2R)-3-[(1,3-benzodioxol-5-ylsulfonyl)(isobutyl)amino]-1-{4-[3-(3-furoylamino)propoxy]benzyl}-2-hydroxypropylcarbamate] |  |  |  | 1 to 10 nM | 1 to 10 nM | 1 to 10 nM |  |  |
| CC(C)CN(C[C@@H](O)[C@H](Cc1ccc(OCCN/C(=N/C#N)Oc2ccccc2)cc1)NC(=O)O[C@H]1CO[C@H]2OCC[C@H]21)S(=O)(=O)c1ccc2c(c1)OCO2 [Compound 262, (3R,3aS,6aR)-hexahydrofuro[2,3-b]furan-3-yl (1S,2R)-3-[(1,3-benzodioxol-5-ylsulfonyl)(isobutyl)amino]-1-[4-(2-{[(E and/or Z)-(cyanoimino)(phenoxy)methyl]amino}ethoxy)benzyl]-2-hydroxypropylcarbamate] |  |  |  |  |  | 1 to 10 nM | 1 to 10 nM | 1 to 10 nM |
| CC(C)CN(C[C@@H](O)[C@H](Cc1ccc(OCCCCN/C(=N/C#N)Oc2ccccc2)cc1)NC(=O)O[C@H]1CO[C@H]2OCC[C@H]21)S(=O)(=O)c1ccc2c(c1)OCO2 [Compound 263, (3R,3aS,6aR)-hexahydrofuro[2,3-b]furan-3-yl (1S,2R)-3-[(1,3-benzodioxol-5-ylsulfonyl)(isobutyl)amino]-1-[4-(4{[(E and/or Z)-(cyanoimino)(phenoxy)methyl]amino}butoxy)benzyl]-2-hydroxypropylcarbamate] |  |  |  | 1 to 10 nM | 1 to 10 nM | 1 to 10 nM |  |  |
| CC(C)CN(C[C@@H](O)[C@H](Cc1ccc(OCCCNc2ccc(C#N)cn2)cc1)NC(=O)O[C@H]1CO[C@H]2OCC[C@H]21)S(=O)(=O)c1ccc2c(c1)OCO2 [Compound 270, (3R,3aS,6aR)-hexahydrofuro[2,3-b]furan-3-yl (1S,2R)-3-[(1,3-benzodioxol-5-ylsulfonyl)(isobutyl)amino]-1-(4-{3[(5-cyano-2-pyridinyl)amino]propoxy}benzyl)-2-hydroxypropylcarbamate] |  |  |  | 1 to 10 nM | 1 to 10 nM | 1 to 10 nM |  |  |
| CC(C)CN(C[C@@H](O)[C@H](Cc1ccc(OCCCNc2ccc(C(F)(F)F)cn2)cc1)NC(=O)O[C@H]1CO[C@H]2OCC[C@H]21)S(=O)(=O)c1ccc2c(c1)OCO2 [Compound 272, (3R,3aS,6aR)-hexahydrofuro[2,3-b]furan-3-yl (1S,2R)-3-[(1,3-benzodioxol-5-ylsulfonyl)(isobutyl)amino]-2-hydroxy-1-[4-(3-{[5-(trifluoromethyl)-2-pyridinyl]amino}propoxy)benzyl]propylcarbamate] |  |  |  | 1 to 10 nM | 1 to 10 nM | 1 to 10 nM |  |  |
| CC(C)CN(C[C@@H](O)[C@H](Cc1ccc(OCCCN(C)C)cc1)NC(=O)O[C@H]1CO[C@H]2OCC[C@H]21)S(=O)(=O)c1ccc2c(c1)OCO2 [Compound 274, (3R,3aS,6aR)-hexahydrofuro[2,3-b]furan-3-yl (1S,2R)-3-[(1,3-benzodioxol-5-ylsulfonyl)(isobutyl)amino]-1-{4-[3-(dimethylamino)propoxy]benzyl}-2-hydroxypropylcarbamate] |  |  |  | 1 to 10 nM | 10 to 100 nM | 10 to 100 nM |  |  |
| CC(C)CN(C[C@@H](O)[C@H](Cc1ccc(OCCCCN(C)C)cc1)NC(=O)O[C@H]1CO[C@H]2OCC[C@H]21)S(=O)(=O)c1ccc2c(c1)OCO2 [Compound 275, (3R,3aS,6aR)-hexahydrofuro[2,3-b]furan-3-yl (1S,2R)-3-[(1,3-benzodioxol-5-ylsulfonyl)(isobutyl)amino]-1-{4-[4-(dimethylamino)butoxy]benzyl}-2-hydroxypropylcarbamate] |  |  |  | 1 to 10 nM | 10 to 100 nM | 10 to 100 nM |  |  |
| CC(C)CN(C[C@@H](O)[C@H](Cc1ccc(OCCCN2CCSC2)cc1)NC(=O)O[C@H]1CO[C@H]2OCC[C@H]21)S(=O)(=O)c1ccc2c(c1)OCO2 [Compound 277, (3R,3aS,6aR)-hexahydrofuro[2,3-b]furan-3-yl (1S,2R)-3-[(1,3-benzodioxol-5-ylsulfonyl)(isobutyl)amino]-2-hydroxy-1-{4-[3-(1,3-thiazolidin-3-yl)propoxy]benzyl}propylcarbamate] |  |  |  | 1 to 10 nM | 1 to 10 nM | 1 to 10 nM |  |  |
| CC(C)CN(C[C@@H](O)[C@H](Cc1ccc(OCCCn2ccnc2)cc1)NC(=O)O[C@H]1CO[C@H]2OCC[C@H]21)S(=O)(=O)c1ccc2c(c1)OCO2 [Compound 278, (3R,3aS,6aR)-hexahydrofuro[2,3-b]furan-3-yl (1S,2R)-3-[(1,3-benzodioxol-5-ylsulfonyl)(isobutyl)amino]-2-hydroxy-1-{4-[3-(1H-imidazol-1-yl)propoxy]benzyl}propylcarbamate] |  |  |  | 1 to 10 nM | 1 to 10 nM | 10 to 100 nM |  |  |
| CC(C)CN(C[C@@H](O)[C@H](Cc1ccc(OCCCN2CCCC2)cc1)NC(=O)O[C@H]1CO[C@H]2OCC[C@H]21)S(=O)(=O)c1ccc2c(c1)OCO2 [Compound 280, (3R,3aS,6aR)-hexahydrofuro[2,3-b]furan-3-yl (1S,2R)-3-[(1,3-benzodioxol-5-ylsulfonyl)(isobutyl)amino]-2-hydroxy-1-{4-[3-(1-pyrrolidinyl)propoxy]-3-benzyl}propylcarbamate] | 1 to 10 nM | 1 to 10 nM | 10 to 100 nM |  |  |  |  |  |
| CC(C)CN(C[C@@H](O)[C@H](Cc1ccc(OCCCN2CCN(C)CC2)cc1)NC(=O)O[C@H]1CO[C@H]2OCC[C@H]21)S(=O)(=O)c1ccc2c(c1)OCO2 [Compound 282, (3R,3aS,6aR)-hexahydrofuro[2,3-b]furan-3-yl (1S,2R)-3-[(1,3-benzodioxol-5-ylsulfonyl)(isobutyl)amino]-2-hydroxy-1-{4-[3-(4-methyl-1-piperazinyl)propoxy]benzyl}propylcarbamate] |  |  |  | 1 to 10 nM | 10 to 100 nM | 10 to 100 nM |  |  |
| COCCNCCCOc1ccc(C[C@H](NC(=O)O[C@H]2CO[C@H]3OCC[C@H]32)[C@H](O)CN(CC(C)C)S(=O)(=O)c2ccc3c(c2)OCO3)cc1 [Compound 283, (3R,3aS,6aR)-hexahydrofuro[2,3-b]furan-3-yl (1S,2R)-3-[(1,3-benzodioxol-5-ylsulfonyl)(isobutyl)amino]-2-hydroxy-1-(4-{3-[(2-methoxyethyl)amino]propoxy}benzyl) propylcarbamate] |  |  |  | 1 to 10 nM | 10 to 100 nM | 10 to 100 nM |  |  |
| CC(C)CN(C[C@@H](O)[C@H](Cc1ccc(OCCCn2cccn2)cc1)NC(=O)O[C@H]1CO[C@H]2OCC[C@H]21)S(=O)(=O)c1ccc2c(c1)OCO2 [Compound 284, (3R,3aS,6aR)-hexahydrofuro[2,3-b]furan-3-yl (1S,2R)-3-[(1,3-benzodioxol-5-ylsulfonyl)(isobutyl)amino]-2-hydroxy-1-{4-[3-(1H-pyrazol-1-yl)propoxy]benzyl}propylcarbamate] |  |  |  | 1 to 10 nM | 1 to 10 nM | 1 to 10 nM |  |  |
| CCCCNC(=O)CCCOc1ccc(C[C@H](NC(=O)O[C@H]2CO[C@H]3OCC[C@H]32)[C@H](O)CN(CC(C)C)S(=O)(=O)c2ccc3c(c2)OCO3)cc1 [Compound 288, (3R,3aS,6aR)-hexahydrofuro[2,3-b]furan-3-yl (1S,2R)-3-[(1,3-benzodioxol-5-ylsulfonyl)(isobutyl)amino]-1-{4-[4-(butylamino)-4-oxobutoxy]benzyl}-2-hydroxypropylcarbamate] |  |  |  | 1 to 10 nM | 1 to 10 nM | 1 to 10 nM |  |  |
